Patent US11591329B2, “Bicyclic heterocycles as FGFR inhibitors” (Incyte Corporation, priority 2019, dated 2023)

Molecular target: FGFR3 enzyme (Homo sapiens (Human), UniProt P22607)
Experiment: FGFR Enzymatic Assay (peptide phosphorylation, FRET)
Format: biochemical
Details: pre-incubated for 4 hours; ATP 140 μM; 25° C. for 1 hr
Method: The inhibitor potency of the exemplified compounds was measured in an enzyme assay that measures peptide phosphorylation using FRET measurements to detect product formation. Inhibitors were serially diluted in DMSO and a volume of 0.5 μL was transferred to the wells of a 384-well plate. For FGFR3, a 10 μL volume of FGFR3 enzyme (Millipore) diluted in assay buffer (50 mM HEPES, 10 mM MgCl2, 1 mM EGTA, 0.01% Tween-20, 5 mM DTT, pH 7.5) was added to the plate and pre-incubated for a time between 5-10 minutes and up to 4 hours. Appropriate controls (enzyme blank and enzyme with no inhibitor) were included on the plate. The assay was initiated by the addition of a 10 μL solution containing biotinylated EQEDEPEGDYFEWLE peptide substrate (SEQ ID NO: 1) and ATP (final concentrations of 500 nM and 140 μM respectively) in assay buffer to the wells. The plate was incubated at 25° C. for 1 hr. The reactions were ended with the addition of 10 μL/well of quench solution (50 mM Tris, 150 mM NaCl, 0.5 mg/mL BSA, pH 7.8; 30 mM EDTA with Perkin Elmer Lance Reagents at 3.75 nM Eu-antibody PY20 and 180 nM APC-Streptavidin). The plate was allowed to equilibrate for ˜1 hr before scanning the wells on a PheraStar plate reader (BMG Labtech).
GraphPad prism3 was used to analyze the data. The IC50 values were derived by fitting the data to the equation for a sigmoidal dose-response with a variable slope. Y=Bottom+(Top−Bottom)/(1+10^((LogIC50−X)*HillSlope)) where X is the logarithm of concentration and Y is the response.
Table 1 provides IC50 data for compounds of the invention assayed in the FGFR Enzymatic Assay after dilution in assay buffer, added to the plate and pre-incubated for 4 hours. The symbol: “+” indicates an IC50 less than 10 nM; “++” indicates an IC50 greater than or equal to 10 nM but less than 30 nM; “+++” indicates an IC50 greater than or equal to 30 nM but less than 200 nM; and “++++” indicates an IC50 greater than or equal to 200 nM.

Sequence of FGFR3 enzyme (P22607 23-806): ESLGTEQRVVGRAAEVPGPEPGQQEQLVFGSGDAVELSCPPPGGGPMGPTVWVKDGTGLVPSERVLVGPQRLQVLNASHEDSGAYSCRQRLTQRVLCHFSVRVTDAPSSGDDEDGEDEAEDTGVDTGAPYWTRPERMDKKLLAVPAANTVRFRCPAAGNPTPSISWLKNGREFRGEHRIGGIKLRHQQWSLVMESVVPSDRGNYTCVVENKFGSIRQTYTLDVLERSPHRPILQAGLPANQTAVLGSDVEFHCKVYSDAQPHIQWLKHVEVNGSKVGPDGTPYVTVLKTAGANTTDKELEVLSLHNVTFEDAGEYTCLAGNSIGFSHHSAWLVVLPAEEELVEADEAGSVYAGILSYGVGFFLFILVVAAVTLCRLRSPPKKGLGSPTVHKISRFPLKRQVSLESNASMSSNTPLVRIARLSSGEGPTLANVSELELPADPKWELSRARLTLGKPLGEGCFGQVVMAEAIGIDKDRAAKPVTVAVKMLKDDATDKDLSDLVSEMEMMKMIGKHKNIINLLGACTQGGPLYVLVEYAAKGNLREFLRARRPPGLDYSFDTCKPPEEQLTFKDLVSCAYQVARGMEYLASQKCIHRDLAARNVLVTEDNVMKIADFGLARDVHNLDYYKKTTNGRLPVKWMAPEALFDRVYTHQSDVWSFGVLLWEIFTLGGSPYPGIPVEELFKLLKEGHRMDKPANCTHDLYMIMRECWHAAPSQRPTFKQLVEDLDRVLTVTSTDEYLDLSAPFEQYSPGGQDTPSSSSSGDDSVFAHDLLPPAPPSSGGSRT

Going from Cn1cc(-c2n[nH]c3ccc(N4CCCC(O)C4)nc23)cn1 (centres unmarked) [Example 1, 1-(3-(1-Methyl-1H-pyrazol-4-yl)-1H-pyrazolo[4,3-b]pyridin-5-yl)piperidin-3-ol] to CN1CCN(c2ccc3[nH]nc(-c4cnn(C)c4)c3n2)C(C2CC2)C1=O (centres unmarked) [Example 13, 3-Cyclopropyl-1-methyl-4-(3-(1-methyl-1H-pyrazol-4-yl)-1H-pyrazolo[4,3-b]pyridin-5-yl)piperazin-2-one], the IC50 falls from ≥ 200 nM to < 10 nM.

Going from Cn1cc(-c2n[nH]c3ccc(N4CCn5cnc(C(F)(F)F)c5C4)nc23)cn1 [Example 2, 3-(1-Methyl-1H-pyrazol-4-yl)-5-(1-(trifluoromethyl)-5,6-dihydroimidazo[1,5-a]pyrazin-7(8H)-yl)-1H-pyrazolo[4,3-b]pyridine] to Cn1cc(-c2n[nH]c3ccc(N4CCCn5nccc54)nc23)cn1 [Example 3, 5-(6,7-Dihydropyrazolo[1,5-a]pyrimidin-4(5H)-yl)-3-(1-methyl-1H-pyrazol-4-yl)-1H-pyrazolo[4,3-b]pyridine], the IC50 rises from < 10 nM to ≥ 200 nM.

First: CN1CC2CCC(C1=O)N2c1ccc2[nH]nc(-c3cnn(C)c3)c2n1 (centres unmarked) [Example 4, 3-Methyl-8-(3-(1-methyl-1H-pyrazol-4-yl)-1H-pyrazolo[4,3-b]pyridin-5-yl)-3,8-diazabicyclo[3.2.1]octan-2-one]
Second: CC1C(=O)N(C2CC2)CCN1c1ccc2[nH]nc(-c3cnn(C)c3)c2n1 (centres unmarked) [Example 14, 1-Cyclopropyl-3-methyl-4-(3-(1-methyl-1H-pyrazol-4-yl)-1H-pyrazolo[4,3-b]pyridin-5-yl)piperazin-2-one]
The IC50 of the first is lower: < 10 nM for the first, 10 to 30 nM for the second.

CC(C)C1C(=O)N(C)CCN1c1ccc2[nH]nc(-c3cnn(C)c3)c2n1 (centres unmarked) [Example 5, 3-Isopropyl-1-methyl-4-(3-(1-methyl-1H-pyrazol-4-yl)-1H-pyrazolo[4,3-b]pyridin-5-yl)piperazin-2-one] and CCC1C(=O)N(C)CCN1c1ccc2[nH]nc(-c3cnn(C)c3)c2n1 (centres unmarked) [Example 6, 3-Ethyl-1-methyl-4-(3-(1-methyl-1H-pyrazol-4-yl)-1H-pyrazolo[4,3-b]pyridin-5-yl)piperazin-2-one] cannot be ordered by IC50: < 10 nM for the first, < 10 nM for the second.

CCC1(CC)C(=O)N(C)CCN1c1ccc2[nH]nc(-c3cnn(C)c3)c2n1 [Example 7, 3,3-Diethyl-1-methyl-4-(3-(1-methyl-1H-pyrazol-4-yl)-1H-pyrazolo[4,3-b]pyridin-5-yl)piperazin-2-one] and CN1CCN(c2ccc3[nH]nc(-c4cnn(C)c4)c3n2)C(CC2CC2)C1=O (centres unmarked) [Example 9, 3-(Cyclopropylmethyl)-1-methyl-4-(3-(1-methyl-1H-pyrazol-4-yl)-1H-pyrazolo[4,3-b]pyridin-5-yl)piperazin-2-one] fall in the same range of IC50: 10 to 30 nM for the first, 10 to 30 nM for the second.

Compared with CN1CCN(c2ccc3[nH]nc(-c4cnn(C)c4)c3n2)C(Cc2ccccc2)C1=O (centres unmarked) [Example 8, 3-Benzyl-1-methyl-4-(3-(1-methyl-1H-pyrazol-4-yl)-1H-pyrazolo[4,3-b]pyridin-5-yl)piperazin-2-one], CN1CCN(c2ccc3[nH]nc(-c4cnn(C)c4)c3n2)C(Cc2ccncc2)C1=O (centres unmarked) [Example 11, 1-Methyl-4-(3-(1-methyl-1H-pyrazol-4-yl)-1H-pyrazolo[4,3-b]pyridin-5-yl)-3-(pyridin-4-ylmethyl)piperazin-2-one] is higher in IC50: 10 to 30 nM for the first, ≥ 200 nM for the second.

First: CN1CCN(c2ccc3[nH]nc(-c4cnn(C)c4)c3n2)C(C2CCOCC2)C1=O (centres unmarked) [Example 10, 1-Methyl-4-(3-(1-methyl-1H-pyrazol-4-yl)-1H-pyrazolo[4,3-b]pyridin-5-yl)-3-(tetrahydro-2H-pyran-4-yl)piperazin-2-one]
Second: CC(C)C1C(=O)N(C)CCN1c1ccc2[nH]nc(-c3cnn(CCN4CCOCC4)c3)c2n1 (centres unmarked) [Example 17, 3-Isopropyl-1-methyl-4-(3-(1-(2-morpholinoethyl)-1H-pyrazol-4-yl)-1H-pyrazolo[4,3-b]pyridin-5-yl)piperazin-2-one]
The IC50 of the first is higher: ≥ 200 nM for the first, 10 to 30 nM for the second.

CC(c1ccccc1)C1C(=O)N(C)CCN1c1ccc2[nH]nc(-c3cnn(C)c3)c2n1 (centres unmarked) [Example 12, 1-Methyl-4-(3-(1-methyl-1H-pyrazol-4-yl)-1H-pyrazolo[4,3-b]pyridin-5-yl)-3-(1-phenylethyl)piperazin-2-one] and CC(C)C1C(=O)N(C)CCN1c1ccc2[nH]nc(-c3cnn(Cc4cccnc4)c3)c2n1 (centres unmarked) [Example 16, 3-Isopropyl-1-methyl-4-(3-(1-(pyridin-3-ylmethyl)-1H-pyrazol-4-yl)-1H-pyrazolo[4,3-b]pyridin-5-yl)piperazin-2-one] cannot be ordered by IC50: < 10 nM for the first, < 10 nM for the second.

First: CC1CN(c2ccc3[nH]nc(-c4cnn(C)c4)c3n2)C(C)C(=O)N1C (centres unmarked) [Example 15, 1,3,6-Trimethyl-4-(3-(1-methyl-1H-pyrazol-4-yl)-1H-pyrazolo[4,3-b]pyridin-5-yl)piperazin-2-one]
Second: Cc1cc2[nH]nc(-c3cnn(C)c3)c2nc1N1CCN(C)C(=O)C1C (centres unmarked) [Example 22, 1,3-Dimethyl-4-(6-methyl-3-(1-methyl-1H-pyrazol-4-yl)-1H-pyrazolo[4,3-b]pyridin-5-yl)piperazin-2-one]
The IC50 of the first is lower: < 10 nM for the first, 30 to 200 nM for the second.

First: CC(C)C1C(=O)N(C)CCN1c1ccc2[nH]nc(-c3ccc(N4CCN(C)CC4)c(F)c3)c2n1 (centres unmarked) [Example 18, 4-(3-(3-Fluoro-4-(4-methylpiperazin-1-yl)phenyl)-1H-pyrazolo[4,3-b]pyridin-5-yl)-3-isopropyl-1-methylpiperazin-2-one]
Second: CC(C)C1C(=O)N(C)CCN1c1ccc2[nH]nc(-c3cn(C)nn3)c2n1 (centres unmarked) [Example 20, 3-Isopropyl-1-methyl-4-(3-(1-methyl-1H-1,2,3-triazol-4-yl)-1H-pyrazolo[4,3-b]pyridin-5-yl)piperazin-2-one]
The IC50 of the first is lower: < 10 nM for the first, 30 to 200 nM for the second. The first is the more potent here.

Compared with CC(C)C1C(=O)N(C)CCN1c1ccc2[nH]nc(-c3cc4cnccc4s3)c2n1 (centres unmarked) [Example 19, 3-Isopropyl-1-methyl-4-(3-(thieno[3,2-c]pyridin-2-yl)-1H-pyrazolo[4,3-b]pyridin-5-yl)piperazin-2-one], CC1C(=O)N(C)CCN1c1nc2c(-c3cnn(C)c3)n[nH]c2cc1-c1ccoc1 (centres unmarked) [Example 25, 4-(6-(Furan-3-yl)-3-(1-methyl-1H-pyrazol-4-yl)-1H-pyrazolo[4,3-b]pyridin-5-yl)-1,3-dimethylpiperazin-2-one] is higher in IC50: < 10 nM for the first, 30 to 200 nM for the second. The first is the more potent here.

First: CC1C(=O)N(C)CCN1c1nc2c(-c3cnn(C)c3)n[nH]c2cc1Cl (centres unmarked) [Example 21, 4-(6-Chloro-3-(1-methyl-1H-pyrazol-4-yl)-1H-pyrazolo[4,3-b]pyridin-5-yl)-1,3-dimethylpiperazin-2-one]
Second: CC1C(=O)N(C)CCN1c1nc2c(-c3cnn(C)c3)n[nH]c2cc1C#N (centres unmarked) [Example 23, 5-(2,4-Dimethyl-3-oxopiperazin-1-yl)-3-(1-methyl-1H-pyrazol-4-yl)-1H-pyrazolo[4,3-b]pyridine-6-carbonitrile]
The IC50 of the first is lower: 10 to 30 nM for the first, 30 to 200 nM for the second. The first is the more potent here.

COc1cc2[nH]nc(-c3cnn(C)c3)c2nc1N1CCN(C)C(=O)C1C (centres unmarked) [Example 24, 4-(6-Methoxy-3-(1-methyl-1H-pyrazol-4-yl)-1H-pyrazolo[4,3-b]pyridin-5-yl)-1,3-dimethylpiperazin-2-one] and CC1C(=O)N(C)CCN1c1nc2c(-c3cnn(C)c3)n[nH]c2cc1Cc1ccccc1 (centres unmarked) [Example 26, 4-(6-Benzyl-3-(1-methyl-1H-pyrazol-4-yl)-1H-pyrazolo[4,3-b]pyridin-5-yl)-1,3-dimethylpiperazin-2-one] fall in the same range of IC50: 30 to 200 nM for the first, 30 to 200 nM for the second.
